What was measured:
[1] = target: T1, PTPN2 (Homo sapiens (Human), UniProt P17706); assay: PhosphoSens assay (PTPN2 BCHEM); format: biochemical; conditions: substrate AQT0264 20 μM, PTPN2 150 pM
Experimental: A PhosphoSens® kinase assay was performed as described by the vendor (AssayQuant Technologies, Marlborough, MA). Briefly, 1000× solutions of compounds were prepared in DMSO via serial dilution of the 10 mM DMSO stocks using 3-fold intervals in a 384-well reagent plate. 50 nL of the compound dilution series was then added to the corresponding wells of a 384-well assay plate. […] Finally, […] of 5× PTPN2 enzyme stock was added to each well of the assay plate for a final enzyme concentration of 150 pM. Reaction progress curves were collected by sampling fluorescence intensity at the excitation wavelength 360 nm (λex360) and emission wavelength 480 nm (λem480) every 71 seconds for one hour using a Synergy H4 plate reader (BioTek Instruments/Agilent Technologies, Winooski, VT) at room temperature.
Target sequence in this assay (P17706 whole entry): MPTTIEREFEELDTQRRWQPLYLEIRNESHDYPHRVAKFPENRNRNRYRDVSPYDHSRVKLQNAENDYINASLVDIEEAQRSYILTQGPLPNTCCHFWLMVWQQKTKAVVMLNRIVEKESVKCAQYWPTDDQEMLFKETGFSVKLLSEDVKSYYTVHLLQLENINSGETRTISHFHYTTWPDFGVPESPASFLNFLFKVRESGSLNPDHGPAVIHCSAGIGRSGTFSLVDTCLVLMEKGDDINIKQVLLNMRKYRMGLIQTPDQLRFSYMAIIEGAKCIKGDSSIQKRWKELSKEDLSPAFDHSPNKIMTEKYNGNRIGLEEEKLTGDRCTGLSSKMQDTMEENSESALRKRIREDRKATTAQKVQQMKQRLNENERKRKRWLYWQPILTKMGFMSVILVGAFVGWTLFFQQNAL

[2] = tested on: B16-F10 cells; assay: Cell proliferation assay (CellTiter-Glo) in B16-F10 cells with IFN-gamma; format: cell-based; conditions: 120 h, mouse IFN-gamma 10 ng/mL, read-out: PTPN2 Prolif 5d B16F10 EC50
[3] = target: T1, PTPN2; assay: Phosphatase activity assay using DiFMUP as substrate; format: biochemical; conditions: PTPN2 0.15 nM, 10 mM DTT
Experimental: The PTPN2 biochemical assay was performed as follows, a 5× stock solution of human PTPN2 (SRP5075, MilliporeSigma, Burlington, MA) and a 1.25× stock solution of DiFMUP (D6567, ThermoFisher Scientific, Waltham, MA), were prepared in 1× reaction buffer consisting of 50 mM HEPES, pH 7.4, 1 mM EDTA, 150 mM NaCl, 0.2 mg/mL BSA, 100 U/mL catalase and 10 mM DTT. […] of the DiFMUP substrate solution, for a final concentration of […] DiFMUP substrate, was added to a Corning 3574 384-well, white, non-binding surface microtiter plate containing […] of serially diluted test compounds prepared in DMSO. The reactions were started with the addition of […] of the enzyme solution, for a final PTPN2 concentration of 0.15 nM, and monitored every 105 seconds for 60 minutes at λEX 360/λEM 460 in a BioTek Synergy HTX plate reader (Agilent Technologies, Santa Clara, CA) at room temperature. The initial linear portions of the progress curves were fit according to a linear equation to yield the slopes and converted to % inhibition based on a value of 100% activity for the no inhibitor treated control. IC50 values of each compound were obtained by fitting the % inhibition-compound concentration curves using Dotmatics software (Dotmatics, Bishops Stortford, Hertfordshire, England),
Target sequence in this assay (P17706 other isoform, or with tags, fused parts or gaps isoform P17706-2): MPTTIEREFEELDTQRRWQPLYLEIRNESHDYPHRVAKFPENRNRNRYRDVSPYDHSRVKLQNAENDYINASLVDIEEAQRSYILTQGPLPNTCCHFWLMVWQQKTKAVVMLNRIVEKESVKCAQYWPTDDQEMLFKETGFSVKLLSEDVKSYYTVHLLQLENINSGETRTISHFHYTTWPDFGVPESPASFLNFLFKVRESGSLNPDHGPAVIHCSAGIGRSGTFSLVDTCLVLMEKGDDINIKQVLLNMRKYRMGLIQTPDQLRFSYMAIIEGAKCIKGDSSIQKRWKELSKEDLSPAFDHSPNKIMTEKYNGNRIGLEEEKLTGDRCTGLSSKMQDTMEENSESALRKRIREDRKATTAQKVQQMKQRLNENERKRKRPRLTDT

[4] = tested on: phosphorylated STAT1 in B16-F10 cells; assay: Phospho-STAT1 (Tyr701) HTRF assay in B16-F10 cells with IFN-gamma; format: cell-based; conditions: mouse IFN-gamma 100 ng/mL, 1 hour, read-out: pSTAT1 HTRF B16F10 EC50
Experimental: B16-F10 cells (ATCC, Manassas, VA, #CRL-6475) were cultured in DMEM growth medium (ThermoFisher Scientific, Waltham, MA, #11995-040) supplemented with 10% heat-inactivated FBS (ThermoFisher Scientific, #16140-071) and 1% pen/strep (ThermoFisher Scientific, #15140-122). The cells were seeded into a white opaque 384-well tissue culture treated microplate (PerkinElmer, Waltham, MA, #6007688) at a density of 10,000 cells/well in 20 uL total volume and incubated overnight at 37 C and 5% CO2. 30 nL of compounds dissolved in DMSO were then transferred from a source plate into target wells with the Echo650 acoustic liquid handler (Beckman Coulter, Indianapolis, IN). Negative control wells received 30 nL of DMSO only (0.15% final concentration). Plates were returned to the incubator for 1 hour and then cells were treated with either 5 uL of growth medium or 5 uL of growth medium containing 500 ng/mL of recombinant mouse IFN-gamma protein (R&D Systems, Minneapolis, MN, #485-MI/CF, 100 ng/mL final concentration) using the Assist automated pipetting platform (INTEGRA Biosciences, Hudson, NH). Plates were incubated at 37 C for 1 hour and assayed for phosphorylated STAT1 protein levels with the phospho-STAT1 (Tyr701) HTRF kit (Cisbio, Bedford, MA, #63ADK026PEH) according to the manufacturer's instructions.

O=C1CN(c2c(O)cc(CNc3ccc(-c4ccccc4)cn3)cc2F)S(=O)(=O)N1 [EXAMPLE 8, 5-[2-fluoro-6-hydroxy-4-[[(5-phenyl-2-pyridyl)amino]methyl]phenyl]-1,1-dioxo-1,2,5-thiadiazolidin-3-one]
IC50 [1]: 50 nM | EC50 [2]: 6250 nM | IC50 [3]: 950 nM | EC50 [4]: 3930 nM

COc1cc(NCc2cc(O)c(N3CC(=O)NS3(=O)=O)c(F)c2)ncc1C [EXAMPLE 9, 5-[2-fluoro-6-hydroxy-4-[[(4-methoxy-5-methyl-2-pyridyl)amino]methyl]phenyl]-1,1-dioxo-1,2,5-thiadiazolidin-3-one]
IC50 [1]: 4 nM | EC50 [2]: 120 nM | IC50 [3]: 4 nM | EC50 [4]: 70 nM

O=C1CN(c2c(O)cc(CNc3ccc(C4CC4)cn3)cc2F)S(=O)(=O)N1 [EXAMPLE 10, 5-[4-[[(5-cyclopropyl-2-pyridyl)amino]methyl]-2-fluoro-6-hydroxy-phenyl]-1,1-dioxo-1,2,5-thiadiazolidin-3-one]
IC50 [1]: 3 nM | EC50 [2]: 610 nM | IC50 [3]: 40 nM | EC50 [4]: 570 nM

N#Cc1ccnc(NCc2cc(O)c(N3CC(=O)NS3(=O)=O)c(F)c2)c1 [EXAMPLE 11, 2-[[3-fluoro-5-hydroxy-4-(1,1,4-trioxo-1,2,5-thiadiazolidin-2-yl)phenyl]methylamino]pyridine-4-carbonitrile]
IC50 [1]: 40 nM | EC50 [2]: 3130 nM | IC50 [3]: 100 nM | EC50 [4]: 1990 nM

COc1ccnc(NCc2cc(O)c(N3CC(=O)NS3(=O)=O)c(F)c2)c1 [EXAMPLE 12, 5-[2-fluoro-6-hydroxy-4-[[(4-methoxy-2-pyridyl)amino]methyl]phenyl]-1,1-dioxo-1,2,5-thiadiazolidin-3-one]
IC50 [1]: 10 nM | EC50 [2]: 140 nM | IC50 [3]: 10 nM | EC50 [4]: 90 nM

CCc1ccnc(NCc2cc(O)c(N3CC(=O)NS3(=O)=O)c(F)c2)c1 [EXAMPLE 13, 5-[4-[[(4-ethyl-2-pyridyl)amino]methyl]-2-fluoro-6-hydroxy-phenyl]-1,1-dioxo-1,2,5-thiadiazolidin-3-one]
IC50 [1]: 2 nM | EC50 [2]: 230 nM | IC50 [3]: 6 nM | EC50 [4]: 260 nM

Cc1ccc(NCc2cc(O)c(N3CC(=O)NS3(=O)=O)c(F)c2)nc1 [EXAMPLE 14, 5-[2-fluoro-6-hydroxy-4-[[(5-methyl-2-pyridyl)amino]methyl]phenyl]-1,1-dioxo-1,2,5-thiadiazolidin-3-one]
IC50 [1]: 10 nM | EC50 [2]: 610 nM | IC50 [3]: 10 nM | EC50 [4]: 750 nM

Cc1cccnc1NCc1cc(O)c(N2CC(=O)NS2(=O)=O)c(F)c1 [EXAMPLE 15, 5-[2-fluoro-6-hydroxy-4-[[(3-methyl-2-pyridyl)amino]methyl]phenyl]-1,1-dioxo-1,2,5-thiadiazolidin-3-one]
IC50 [1]: 110 nM | EC50 [2]: 6480 nM | IC50 [3]: 460 nM | EC50 [4]: 5020 nM

O=C1CN(c2c(O)cc(CNc3cc(F)ccn3)cc2F)S(=O)(=O)N1 [EXAMPLE 16, 5-[2-fluoro-4-[[(4-fluoro-2-pyridyl)amino]methyl]-6-hydroxy-phenyl]-1,1-dioxo-1,2,5-thiadiazolidin-3-one]
IC50 [1]: 20 nM | EC50 [2]: 1030 nM | IC50 [3]: 200 nM | EC50 [4]: 1240 nM

Cc1cccc(NCc2cc(O)c(N3CC(=O)NS3(=O)=O)c(F)c2)n1 [EXAMPLE 17, 5-[2-fluoro-6-hydroxy-4-[[(6-methyl-2-pyridyl)amino]methyl]phenyl]-1,1-dioxo-1,2,5-thiadiazolidin-3-one]
IC50 [1]: 1 nM | EC50 [2]: 160 nM | IC50 [3]: 4 nM | EC50 [4]: 80 nM

Cc1ccc(NCc2cc(O)c(N3CC(=O)NS3(=O)=O)c(F)c2)nc1C [EXAMPLE 19, 5-[4-[[(5,6-dimethyl-2-pyridyl)amino]methyl]-2-fluoro-6-hydroxy-phenyl]-1,1-dioxo-1,2,5-thiadiazolidin-3-one]
IC50 [1]: 2 nM | EC50 [2]: 190 nM | IC50 [3]: 5 nM | EC50 [4]: 310 nM

Cc1ccc(C)c(NCc2cc(O)c(N3CC(=O)NS3(=O)=O)c(F)c2)n1 [EXAMPLE 20, 5-[4-[[(3,6-dimethyl-2-pyridyl)amino]methyl]-2-fluoro-6-hydroxy-phenyl]-1,1-dioxo-1,2,5-thiadiazolidin-3-one]
IC50 [1]: 80 nM | EC50 [2]: 3950 nM | IC50 [3]: 190 nM | EC50 [4]: 3600 nM

COc1ccc(C)nc1NCc1cc(O)c(N2CC(=O)NS2(=O)=O)c(F)c1 [EXAMPLE 22, 5-[2-fluoro-6-hydroxy-4-[[(3-methoxy-6-methyl-2-pyridyl)amino]methyl]phenyl]-1,1-dioxo-1,2,5-thiadiazolidin-3-one]
IC50 [1]: 80 nM | EC50 [2]: 2470 nM | IC50 [3]: 170 nM | EC50 [4]: 2970 nM

CCc1cccnc1NCc1cc(O)c(N2CC(=O)NS2(=O)=O)c(F)c1 [EXAMPLE 23, 5-[4-[[(3-ethyl-2-pyridyl)amino]methyl]-2-fluoro-6-hydroxy-phenyl]-1,1-dioxo-1,2,5-thiadiazolidin-3-one]
IC50 [1]: 30 nM | EC50 [2]: 14100 nM | IC50 [3]: 510 nM | EC50 [4]: 1510 nM

Cc1cnc(NCc2cc(O)c(N3CC(=O)NS3(=O)=O)c(F)c2)c(C)c1 [EXAMPLE 24, 5-[4-[[(3,5-dimethyl-2-pyridyl)amino]methyl]-2-fluoro-6-hydroxy-phenyl]-1,1-dioxo-1,2,5-thiadiazolidin-3-one]
IC50 [1]: 100 nM | EC50 [2]: 4560 nM | IC50 [3]: 80 nM | EC50 [4]: 5400 nM

Cc1ccnc(NCc2cc(O)c(N3CC(=O)NS3(=O)=O)c(F)c2)c1C [EXAMPLE 25, 5-[4-[[(3,4-dimethyl-2-pyridyl)amino]methyl]-2-fluoro-6-hydroxy-phenyl]-1,1-dioxo-1,2,5-thiadiazolidin-3-one]
IC50 [1]: 90 nM | EC50 [2]: 7670 nM | IC50 [3]: 130 nM | EC50 [4]: 10200 nM

COc1cnc(NCc2cc(O)c(N3CC(=O)NS3(=O)=O)c(F)c2)cc1OC [EXAMPLE 26, 5-[4-[[(4,5-dimethoxy-2-pyridyl)amino]methyl]-2-fluoro-6-hydroxy-phenyl]-1,1-dioxo-1,2,5-thiadiazolidin-3-one]
IC50 [1]: 10 nM | EC50 [2]: 740 nM | IC50 [3]: 10 nM | EC50 [4]: 340 nM

Cc1cnc(NCc2cc(O)c(N3CC(=O)NS3(=O)=O)c(F)c2)cc1C [EXAMPLE 28, 5-[4-[[(4,5-dimethyl-2-pyridyl)amino]methyl]-2-fluoro-6-hydroxy-phenyl]-1,1-dioxo-1,2,5-thiadiazolidin-3-one]
IC50 [1]: 1 nM | EC50 [2]: 280 nM | IC50 [3]: 2 nM | EC50 [4]: 130 nM

COc1cnc(NCc2cc(O)c(N3CC(=O)NS3(=O)=O)c(F)c2)c(OC)c1 [EXAMPLE 30, 5-[4-[[(3,5-dimethoxy-2-pyridyl)amino]methyl]-2-fluoro-6-hydroxy-phenyl]-1,1-dioxo-1,2,5-thiadiazolidin-3-one]
IC50 [1]: 20 nM | EC50 [2]: 1720 nM | IC50 [3]: 140 nM | EC50 [4]: 1780 nM

Cc1cc(NCc2cc(O)c(N3CC(=O)NS3(=O)=O)c(F)c2)ncc1F [EXAMPLE 31, 5-[2-fluoro-4-[[(5-fluoro-4-methyl-2-pyridyl)amino]methyl]-6-hydroxy-phenyl]-1,1-dioxo-1,2,5-thiadiazolidin-3-one]
IC50 [1]: 20 nM | EC50 [2]: 1530 nM | IC50 [3]: 50 nM | EC50 [4]: 1190 nM

— patent US20240180886A1, “INHIBITORS OF PROTEIN TYROSINE PHOSPHATASE, COMPOSITIONS, AND METHODS OF USE” (BRISTOL-MYERS SQUIBB COMPANY, priority 2022, published 2024)
